Data: publication PMC11539218 (Antimicrobial Agents and Chemotherapy, 2024)

Tests used:
[1] = tested on: L. (L.) infantum promastigotes; assay: Mitochondrial membrane electric potential (JC-1, flow cytometry); type: cell-based, Leishmania (L.) infantum; settings: compound 1 169.2 µM, CCCP 10 µM; 2 and 4 h; JC-1 BL-2/BL-1 ratio; vs untreated
Experimental: Promastigotes (2 × 10^6/well) were treated with compound 1 (169.2 µM) for 2 and 4 h, at 24°C. Then, JC-1 (10 µM) was added and the parasites were incubated for 20 min. Fluorescence was measured in a flow cytometer with an excitation wavelength of 488 nm and emission of 530 (BL-1) and 574 nm (BL-2). Mitochondrial membrane potential was established through the ratio of BL-2/BL-1 channels ([19]). Carbonyl cyanide m-chlorophenylhydrazone (CCCP) (10 µM) was employed as positive control and untreated parasites as negative control.

[2] = tested on: L. (L.) infantum promastigotes; assay: Total proteins of the parasite; type: cell-based, Leishmania (L.) infantum; settings: promastigotes after treatment
[3] = tested on: L. (L.) infantum promastigotes; assay: Adenosine triphosphate levels (luciferase bioluminescence); type: cell-based, Leishmania (L.) infantum; settings: 169.2 µM; 2 and 4 h; vs untreated parasites
Experimental: Promastigotes (2 × 10^6/well) were treated with compound 1 (169.2 µM) for 2 and 4 h, at 24°C. Subsequently, the parasites were lysed with Triton X-100 (0.5%) and mixed with ATP Determination Kit standard reaction buffer (1 mM DTT, 0.5 mM luciferin, and 1.25 µg/mL luciferase), according to the manufacturer’s instructions. […] CCCP (10 µM) was employed as positive control and untreated parasites as negative control.

[4] = tested on: L. (L.) infantum promastigotes; assay: Ultrastructural studies (transmission electron microscopy); type: cell-based, Leishmania (L.) infantum; settings: 169.2 µM, TEM
Experimental: Promastigotes (3 × 10^7 parasites/well) were treated with compound 1 (169.2 µM) for 2, 4, and 6 h at 24°C. Subsequently, parasites were fixed in glutaraldehyde solution (2.5% wt/vol) and post-fixed in osmium tetroxide (1% wt/vol). The samples were gradually dehydrated in acetone and embedded in Epon 812 resin. Ultrathin sections were stained with uranyl acetate and lead citrate ([27]). The material was analyzed under a transmission electron microscope (JEOL JEM-1011). Untreated parasites were employed as a negative control.

[5] = tested on: Erythrocytes collected from BALB/c mice; assay: Hemolytic activity; type: cell-based; settings: 6.25 to 200 µM, 2 h
Experimental: Erythrocytes collected from BALB/c mice were added to a U-shaped bottom 96-wells microplate at 3% (vol/vol) in phosphate-buffered saline (PBS), treated with compound 1 serially diluted ([…] to 200 µM) in PBS and incubated for 2 h at 24°C. To determine the hemolytic activity, cell supernatants were collected and analyzed in a spectrophotometer (570 nm) ([15]). Bidistilled water was employed as a positive control and untreated erythrocytes as a negative control.

[6] = tested on: L. (L.) infantum promastigotes; assay: Plasma membrane permeability (Sytox Green); type: cell-based, Leishmania (L.) infantum; settings: compound 1 169.2 µM, Triton X-100 0.5%, up to 4 h
Experimental: Promastigotes (2 × 10^6/well) were pretreated with Sytox Green (1 µM) for 15 min, at 24°C. Then, compound 1 (169.2 µM) was added and the fluorescence was monitored every 20 min up to 4 h in a spectrofluorometer, with excitation and emission wavelengths of 485 and 535 nm, respectively ([17]). Triton X-100 (0.5% vol/vol) was employed as positive control and untreated parasites as negative control ([18]).

[7] = tested on: Peritoneal macrophages infected with L. (L.) infantum amastigotes; assay: Nitric oxide in infected macrophages (Griess reagent); type: cell-based, BALB/c mice; settings: compound 1 7.5 to 60 µM, LPS 25 µg/mL; 48 h; vs untreated
Experimental: L. (L.) infantum (MHOM/BR/1972/LD) promastigotes were maintained in M199 medium supplemented with 10% FBS and 0.25% hemin, pH 7.2 at 24°C. Amastigotes were isolated from golden hamsters (M. auratus) by differential centrifugation of infected spleens and the parasite’s number was determined according to Stauber ([14]). Peritoneal macrophages were obtained from the peritoneal cavity of BALB/c mice and maintained in RPMI-1640 medium supplemented with 10% FBS, pH 7.2 at 37°C.
Peritoneal macrophages (5 × 10^5/well) were infected with L. (L.) infantum amastigotes (10:1 amastigotes/macrophage) for 24 h, at 37°C with 5% CO2. Later, the cells were treated with compound 1 serially diluted (7.5 to 60 µM), under the same conditions described above. After 48 h, the supernatants were collected and incubated with Griess reagent ([28]). […] LPS (25 µg/mL) was employed as the positive control and untreated cells as the negative control ([29]).

[8] = Stability in plasma under handling and storage conditions (HPLC); type: in vitro ADME
Experimental: The detection and quantification of compound 1 in the blood matrices were performed after sample processing, using a liquid-liquid extraction methodology. First, 100 µL of plasma was enriched with 10 µL of PI (0.8 µg/mL). Subsequently, 500 µL of hexane was added and the mixture was vortexed for 1 min and centrifuged at 22,082 × g for 5 min. The organic phase was collected in glass tubes and the aqueous phase was subjected to the liquid-liquid extraction procedure again. In the end, the combined organic samples were completely evaporated at 60°C under nitrogen flow and reconstituted in 100 µL of 40:60 ACN:H2O + 0.1% orthophosphoric acid (pH 2.08). Finally, the extracts were centrifuged at 22,082 × g for 2 min and injected into the chromatographic system. Chromatographic analyses by HPLC were performed using a C18 column (Purospher Star LiChroCART, 55 × 4 mm, 3 µm) with gradient elution (Table 1).
Method validation was performed following the guidelines for bioanalytical methods validation of the Food and Drug Administration and European Medicines Agency ([29], [30]). Thus, the acceptance criteria set out in these guides were adopted for the parameters of selectivity, linearity, precision, accuracy, lower limit of quantification (LLOQ), and stability. Quality controls of the lower limit of quantification (QCLOQ—0.03 µg/mL), low (QC1—0.08 µg/mL), medium (QC2—2 µg/mL), and high (QC3—5 µg/mL), were also established in accordance with the guides. […] In addition, stability was established after exposure to different conditions, mimicking storage and handling throughout the experimental process (Table 2).

SMILES: C=CCc1cc(OC)c(OCc2ccc(OC)cc2)c(Oc2ccc(CN3CCOCC3)cc2OC)c1 [compound 1, 4-(4-(5-allyl-3-methoxy-2-((4-methoxybenzyl)oxy)phenoxy)-3-methoxybenzyl)morpholine]
- mitochondrial membrane electric potential (ΔΨm) [1]: significant depolarization
- total protein level [2]: increased level of total protein
- ATP concentration [3]: significant reduction
- ultrastructural alterations ([4]; 2 h): increased volume of the mitochondria
- ultrastructural alterations ([4]; all studied times (2, 4, 6 h)): autophagic vacuoles were observed in the cytoplasm
- ultrastructural alterations ([4]; later times of incubation (4 h, 6 h)): losses of mitochondrial cristae
- hemolysis [5]: no hemolysis
- plasma membrane permeability [6]: no alteration
- NO levels [7]: remained similar
- Stability/reference analyte concentration (%) ([8]; 0.08 µg/mL, processed sample, 2 h at room temperature): 98.35%
- Stability/reference analyte concentration (%) ([8]; 0.08 µg/mL, processed sample, 24 h at 4°C): 99.12%
- Stability/reference analyte concentration (%) ([8]; 0.08 µg/mL, unprocessed sample, 2 h at room temperature): 86.54%
- Stability/reference analyte concentration (%) ([8]; 0.08 µg/mL, unprocessed sample, 6 h at 4°C): 91.74%
- Stability/reference analyte concentration (%) ([8]; 0.08 µg/mL, unprocessed sample, 24 h at 4°C): 87.07%
- Stability/reference analyte concentration (%) ([8]; 0.08 µg/mL, unprocessed sample, 15 days at −20°C): 85.36%
- Stability/reference analyte concentration (%) ([8]; 0.08 µg/mL, unprocessed sample, 30 days at −20°C): 92.66%
- Stability/reference analyte concentration (%) ([8]; 0.08 µg/mL, unprocessed sample, freezing/thawing): 88.58%
- Stability/reference analyte concentration (%) ([8]; 5.00 µg/mL, processed sample, 2 h at room temperature): 100.43%
- Stability/reference analyte concentration (%) ([8]; 5.00 µg/mL, processed sample, 24 h at 4°C): 98.84%
- Stability/reference analyte concentration (%) ([8]; 5.00 µg/mL, unprocessed sample, 2 h at room temperature): 90.90%
- Stability/reference analyte concentration (%) ([8]; 5.00 µg/mL, unprocessed sample, 6 h at 4°C): 95.92%
- Stability/reference analyte concentration (%) ([8]; 5.00 µg/mL, unprocessed sample, 24 h at 4°C): 91.65%
- Stability/reference analyte concentration (%) ([8]; 5.00 µg/mL, unprocessed sample, 15 days at −20°C): 90.53%
- Stability/reference analyte concentration (%) ([8]; 5.00 µg/mL, unprocessed sample, 30 days at −20°C): 93.24%
- Stability/reference analyte concentration (%) ([8]; 5.00 µg/mL, unprocessed sample, freezing/thawing): 97.49%
